Assay results as given in patent publication US20220388979A1, “QUINOLINE DERIVATIVES AS PROTEIN KINASE INHIBITORS” (B.C.I. PHARMA, priority 2019, published 2022).

Columns and labels:
[1] = system: male C57Bl6J mice; assay: Streptozotocin-induced diabetic neuropathic pain model, Von Frey mechanical threshold (compound 32 study); type: in vivo; details: pregabalin subcutaneous 0.5 mg/mL in phosphate buffer (100 μL/10 g)
Description: The experiment has been conducted in 8 weeks old male C57Bl6J mice (from Charles River). For this study, 6 mice per group have been used.
(§1) Diabetes has been induced by a single IP injection of 200 μg/mL streptozotocin solution (100 μL/10 g). Glycemia has been tested before, D+3 and D+7 post-injection. All injected mice presented blood glucose concentration […] at D+7, and then have been used for analgesic testing of the compounds.
(§2) Compound 32 has been orally administrated at 6 mg/mL in Capryol 90 solution (50 μL/10 g) and pregabalin has been subcutaneously injected at 0.5 mg/mL in phosphate buffer (100 μL/10 g) at D+14 and D+16. A time course measurement at +1 h, +2 h, +4 h and +6 h has been performed after compound administration.
(§3) Mechanical threshold response of mice has been measured with calibrated Von Frey filaments using the up/down method, blind for manipulator. Measurements have been performed before streptozotocin injection and 14 days after.
(§4) Statistical analysis was performed using SigmaPlot 12.5 software. Percentage of maximum possible effect is calculated as follow
(§5) % MPE=[(Test−Prest)/(cut-off−Prest)]*100
(§6) Where cut-off, Test and Pretest values correspond respectively to baseline measure, timepoint post-administration measure and measure before administration.

[2] = system: male C57B16J mice; assay: Streptozotocin-induced diabetic neuropathic pain model, Von Frey mechanical threshold (compound 108 study); type: in vivo; details: pregabalin subcutaneous 0.5 mg/mL in phosphate buffer (100 μL/10 g)
Description: The experiment has been conducted in 8 weeks old male C57B16J mice (from Charles River). For this study, 10 mice per group have been used.
as §1
as §2, with “Compound 108” for “Compound 32”, “at 2, 5 and 10” for “at 6”, “in 0.9% NaCl” for “in Capryol 90”, “and D+17.” for “and D+16.”
as §3, §4, §5, §6

With `CC(C)C[C@H](CN)CC(=O)O` [Pregabalin, pregabalin] the “Analgesic effect expressed as % MPE” value ([1]; +1 h) was 80.7 ± 10.8 % MPE, the “Analgesic effect expressed as % of baseline” value ([1]; +1 h) was 81.2 ± 7.9 % of baseline and the “Analgesic effect expressed as % MPE” value ([1]; +2 h) was 84.6 ± 10.6 % MPE. For the same compound, the “Analgesic effect expressed as % of baseline” value ([1]; +2 h) was 86.0 ± 9.1 % of baseline, the “Analgesic effect expressed as % MPE” value ([1]; +4 h) was 33.9 ± 5.8 % MPE and the “Analgesic effect expressed as % of baseline” value ([1]; +4 h) was 45.0 ± 5.3 % of baseline. The “Analgesic effect expressed as % MPE” value ([1]; +6 h) was 5.9 ± 4.3 % MPE, the “Analgesic effect expressed as % of baseline” value ([1]; +6 h) was 23.5 ± 2.1 % of baseline and the “Analgesic effect expressed as % MPE” value ([2]; +1 h) was 76.6 ± 15.4 % MPE. For the same compound, the “Analgesic effect expressed as % of baseline” value ([2]; +1 h) was 80.6 ± 12.4 % of baseline, the “Analgesic effect expressed as % MPE” value ([2]; +2 h) was 79.5 ± 13.7 % MPE and the “Analgesic effect expressed as % of baseline” value ([2]; +2 h) was 85.7 ± 10.7 % of baseline. The “Analgesic effect expressed as % MPE” value ([2]; +4 h) was 31.0 ± 17.0 % MPE, the “Analgesic effect expressed as % of baseline” value ([2]; +4 h) was 45.6 ± 13.0 % of baseline and the “Analgesic effect expressed as % MPE” value ([2]; +6 h) was 10.9 ± 7.5 % MPE. For the same compound, the “Analgesic effect expressed as % of baseline” value ([2]; +6 h) was 30.3 ± 4.8 % of baseline.
